In patent US10800741B2 (ANCUREALL PHARMACEUTICAL (SHANGHAI) CO., LTD., priority 2017, dated 2020):

Experiments:
Assay in all cases: KINOMEscan in vitro binding to 468 labeled protein kinases
protein kinases [1] = target: T1, protein kinases (Homo sapiens, UniProt P22607); conditions: FGFR3, read-out: Test compound/solvent control (%)
T1 construct: purchased Discovery X company (USA), KINOMEscan screening platform
How it was run: (§1)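 Competition binding across 468 labelled kinases on the KINOMEscan platform, compound tested at 1000 nM, 10 nM and 1 nM, duplicate samples. Result given as percentage of DMSO solvent control; lower percentage means stronger binding.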

protein kinases [2] = target: T2, protein kinases (Homo sapiens, UniProt O94804); conditions: LOK
T2 construct: purchased Discovery X company (USA), KINOMEscan screening platform
How it was run: as §1

protein kinases [3] = target: T3, protein kinases (Homo sapiens, UniProt P11362); conditions: FGFR1, read-out: Test compound/solvent control (%)
T3 construct: purchased Discovery X company (USA), KINOMEscan screening platform
T3 sequence (P11362 22-822): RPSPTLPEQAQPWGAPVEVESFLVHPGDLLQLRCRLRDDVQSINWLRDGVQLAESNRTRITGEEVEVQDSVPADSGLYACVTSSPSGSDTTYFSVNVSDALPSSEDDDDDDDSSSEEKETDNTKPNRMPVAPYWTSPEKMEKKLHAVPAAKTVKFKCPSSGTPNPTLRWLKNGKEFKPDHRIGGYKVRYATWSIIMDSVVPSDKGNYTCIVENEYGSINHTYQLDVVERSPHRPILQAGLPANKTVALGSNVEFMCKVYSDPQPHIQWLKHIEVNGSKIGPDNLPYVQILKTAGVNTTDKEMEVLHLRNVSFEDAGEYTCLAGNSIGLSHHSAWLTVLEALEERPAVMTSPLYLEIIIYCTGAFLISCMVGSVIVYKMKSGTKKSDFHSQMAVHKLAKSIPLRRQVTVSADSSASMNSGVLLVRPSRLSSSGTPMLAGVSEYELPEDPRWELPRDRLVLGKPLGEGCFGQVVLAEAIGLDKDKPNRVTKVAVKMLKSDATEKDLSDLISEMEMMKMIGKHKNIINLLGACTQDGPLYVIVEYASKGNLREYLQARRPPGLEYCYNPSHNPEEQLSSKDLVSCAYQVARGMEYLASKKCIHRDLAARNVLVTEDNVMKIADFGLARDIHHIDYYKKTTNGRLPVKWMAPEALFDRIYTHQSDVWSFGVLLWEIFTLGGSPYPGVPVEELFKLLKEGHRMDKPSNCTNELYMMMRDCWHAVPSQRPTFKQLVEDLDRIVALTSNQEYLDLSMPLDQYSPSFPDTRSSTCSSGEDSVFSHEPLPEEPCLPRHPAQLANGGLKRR
How it was run: as §1

protein kinases [4] = test system: protein kinases
How it was run: as §1

protein kinases [5] = target: T4, protein kinases (Homo sapiens, UniProt P10721, A829P); conditions: KIT(A829P), read-out: Test compound/solvent control (%)
T4 construct: purchased Discovery X company (USA), KINOMEscan screening platform
T4 sequence (P10721 26-976 A829P): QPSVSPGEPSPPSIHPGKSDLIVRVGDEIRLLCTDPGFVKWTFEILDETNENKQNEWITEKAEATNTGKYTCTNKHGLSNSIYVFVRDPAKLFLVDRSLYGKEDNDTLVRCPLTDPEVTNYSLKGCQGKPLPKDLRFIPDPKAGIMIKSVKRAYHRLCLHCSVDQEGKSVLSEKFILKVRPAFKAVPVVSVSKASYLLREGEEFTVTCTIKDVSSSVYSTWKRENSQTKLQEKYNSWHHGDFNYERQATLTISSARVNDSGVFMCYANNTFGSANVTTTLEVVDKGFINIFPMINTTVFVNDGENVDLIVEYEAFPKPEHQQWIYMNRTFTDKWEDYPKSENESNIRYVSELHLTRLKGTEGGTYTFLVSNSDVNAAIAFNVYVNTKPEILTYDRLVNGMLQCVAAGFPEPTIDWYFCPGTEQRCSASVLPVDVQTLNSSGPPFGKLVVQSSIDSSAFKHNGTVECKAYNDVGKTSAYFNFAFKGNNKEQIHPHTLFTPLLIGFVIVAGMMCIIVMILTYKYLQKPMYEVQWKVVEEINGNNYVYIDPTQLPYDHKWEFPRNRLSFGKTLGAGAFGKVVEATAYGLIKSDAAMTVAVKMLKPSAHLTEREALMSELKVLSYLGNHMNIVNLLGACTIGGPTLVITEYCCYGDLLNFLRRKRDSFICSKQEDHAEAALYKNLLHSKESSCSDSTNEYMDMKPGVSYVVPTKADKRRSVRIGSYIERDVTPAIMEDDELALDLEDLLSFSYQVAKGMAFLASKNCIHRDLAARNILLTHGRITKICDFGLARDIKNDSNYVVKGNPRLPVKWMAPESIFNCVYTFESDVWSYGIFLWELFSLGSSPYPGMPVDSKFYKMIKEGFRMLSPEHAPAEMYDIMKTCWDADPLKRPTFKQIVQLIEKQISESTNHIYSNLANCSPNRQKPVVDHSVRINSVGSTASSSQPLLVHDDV
How it was run: as §1

protein kinases [6] = target: T5, protein kinases (Homo sapiens, UniProt P36888, D835H); conditions: FLT3(D835H), read-out: Test compound/solvent control (%)
T5 construct: purchased Discovery X company (USA), KINOMEscan screening platform
T5 sequence (P36888 27-993 D835H): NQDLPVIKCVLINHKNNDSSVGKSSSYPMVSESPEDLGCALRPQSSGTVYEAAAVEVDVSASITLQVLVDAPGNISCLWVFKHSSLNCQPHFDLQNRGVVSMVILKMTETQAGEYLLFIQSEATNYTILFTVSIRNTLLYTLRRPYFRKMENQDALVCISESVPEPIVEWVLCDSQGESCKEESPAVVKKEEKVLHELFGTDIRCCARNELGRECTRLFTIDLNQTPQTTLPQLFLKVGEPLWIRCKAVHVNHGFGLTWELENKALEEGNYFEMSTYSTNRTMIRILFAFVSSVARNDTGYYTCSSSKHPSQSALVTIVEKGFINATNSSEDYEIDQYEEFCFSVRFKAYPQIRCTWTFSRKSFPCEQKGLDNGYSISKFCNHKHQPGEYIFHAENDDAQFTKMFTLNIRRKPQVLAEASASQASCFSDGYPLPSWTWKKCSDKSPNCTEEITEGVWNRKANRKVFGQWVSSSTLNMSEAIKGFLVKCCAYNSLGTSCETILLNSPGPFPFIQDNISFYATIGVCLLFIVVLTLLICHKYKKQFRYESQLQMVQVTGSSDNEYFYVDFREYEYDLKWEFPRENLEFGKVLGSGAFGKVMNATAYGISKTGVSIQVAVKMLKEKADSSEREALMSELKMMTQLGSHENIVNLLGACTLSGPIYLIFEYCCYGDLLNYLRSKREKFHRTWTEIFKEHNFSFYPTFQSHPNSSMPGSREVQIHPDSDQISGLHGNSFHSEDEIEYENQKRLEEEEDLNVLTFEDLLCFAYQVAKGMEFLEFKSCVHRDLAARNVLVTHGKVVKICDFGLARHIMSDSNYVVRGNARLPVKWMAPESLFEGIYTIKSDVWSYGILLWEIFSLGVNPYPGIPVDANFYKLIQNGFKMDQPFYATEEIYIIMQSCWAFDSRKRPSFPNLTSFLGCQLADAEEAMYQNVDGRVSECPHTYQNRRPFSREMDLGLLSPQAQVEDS
How it was run: as §1

protein kinases [7] = target: T6, protein kinases (Homo sapiens, UniProt P08922); conditions: ROS1, read-out: Test compound/solvent control (%)
T6 construct: purchased Discovery X company (USA), KINOMEscan screening platform
T6 sequence (P08922 28-2347): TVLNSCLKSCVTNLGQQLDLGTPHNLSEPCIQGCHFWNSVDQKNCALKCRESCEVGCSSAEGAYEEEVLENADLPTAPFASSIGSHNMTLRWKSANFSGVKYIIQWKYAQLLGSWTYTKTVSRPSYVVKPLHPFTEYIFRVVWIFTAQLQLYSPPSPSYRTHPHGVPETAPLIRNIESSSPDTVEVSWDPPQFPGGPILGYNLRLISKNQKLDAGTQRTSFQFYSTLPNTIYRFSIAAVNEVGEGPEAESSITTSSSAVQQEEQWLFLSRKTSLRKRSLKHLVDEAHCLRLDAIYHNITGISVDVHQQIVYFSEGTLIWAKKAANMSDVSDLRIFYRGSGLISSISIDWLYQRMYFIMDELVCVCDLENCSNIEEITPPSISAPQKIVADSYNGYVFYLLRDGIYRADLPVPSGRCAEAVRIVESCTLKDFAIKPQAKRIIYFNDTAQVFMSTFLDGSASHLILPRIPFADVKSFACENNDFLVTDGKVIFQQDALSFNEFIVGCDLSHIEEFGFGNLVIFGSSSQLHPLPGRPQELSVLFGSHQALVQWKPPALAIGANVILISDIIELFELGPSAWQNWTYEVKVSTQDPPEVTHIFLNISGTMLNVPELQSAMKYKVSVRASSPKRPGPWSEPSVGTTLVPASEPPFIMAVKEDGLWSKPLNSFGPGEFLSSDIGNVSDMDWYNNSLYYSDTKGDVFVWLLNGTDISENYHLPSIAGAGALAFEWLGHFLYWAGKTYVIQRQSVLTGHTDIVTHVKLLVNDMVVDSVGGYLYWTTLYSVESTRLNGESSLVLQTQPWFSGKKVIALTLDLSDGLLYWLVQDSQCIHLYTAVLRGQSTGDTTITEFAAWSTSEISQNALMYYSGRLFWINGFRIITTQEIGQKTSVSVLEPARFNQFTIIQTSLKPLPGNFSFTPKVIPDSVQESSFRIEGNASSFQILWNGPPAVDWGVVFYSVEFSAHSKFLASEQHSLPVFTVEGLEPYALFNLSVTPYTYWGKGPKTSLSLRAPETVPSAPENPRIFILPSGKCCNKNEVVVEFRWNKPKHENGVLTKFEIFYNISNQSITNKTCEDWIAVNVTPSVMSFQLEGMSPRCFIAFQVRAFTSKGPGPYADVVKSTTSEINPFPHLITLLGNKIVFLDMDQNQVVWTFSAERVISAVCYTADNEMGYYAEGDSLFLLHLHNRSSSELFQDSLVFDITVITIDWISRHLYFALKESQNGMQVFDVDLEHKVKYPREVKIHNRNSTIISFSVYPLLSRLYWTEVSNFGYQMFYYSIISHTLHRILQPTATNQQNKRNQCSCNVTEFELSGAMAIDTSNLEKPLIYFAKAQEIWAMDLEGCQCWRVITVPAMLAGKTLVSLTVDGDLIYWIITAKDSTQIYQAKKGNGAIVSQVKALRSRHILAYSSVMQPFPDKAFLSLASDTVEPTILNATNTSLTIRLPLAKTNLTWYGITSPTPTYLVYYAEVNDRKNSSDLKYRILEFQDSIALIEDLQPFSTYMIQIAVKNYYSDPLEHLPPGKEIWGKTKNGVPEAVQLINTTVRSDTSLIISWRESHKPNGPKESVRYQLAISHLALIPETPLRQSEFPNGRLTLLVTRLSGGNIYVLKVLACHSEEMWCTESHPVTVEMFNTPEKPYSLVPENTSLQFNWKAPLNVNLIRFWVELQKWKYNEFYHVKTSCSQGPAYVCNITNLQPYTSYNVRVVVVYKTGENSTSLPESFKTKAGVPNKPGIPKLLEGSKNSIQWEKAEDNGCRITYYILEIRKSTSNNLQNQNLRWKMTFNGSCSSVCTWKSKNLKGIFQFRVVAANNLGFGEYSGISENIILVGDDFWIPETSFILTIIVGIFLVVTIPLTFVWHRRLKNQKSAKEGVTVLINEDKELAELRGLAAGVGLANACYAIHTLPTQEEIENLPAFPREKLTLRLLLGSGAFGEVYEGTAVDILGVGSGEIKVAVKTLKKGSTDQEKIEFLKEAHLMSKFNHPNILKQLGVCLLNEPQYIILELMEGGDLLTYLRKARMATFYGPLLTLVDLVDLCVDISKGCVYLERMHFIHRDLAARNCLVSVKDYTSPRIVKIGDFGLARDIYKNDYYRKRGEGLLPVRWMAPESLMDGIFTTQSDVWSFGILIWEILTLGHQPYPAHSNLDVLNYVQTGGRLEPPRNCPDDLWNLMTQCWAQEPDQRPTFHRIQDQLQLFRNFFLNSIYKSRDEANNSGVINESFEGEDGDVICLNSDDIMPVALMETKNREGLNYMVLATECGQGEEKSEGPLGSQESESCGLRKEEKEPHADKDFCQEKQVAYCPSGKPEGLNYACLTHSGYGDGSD
How it was run: as §1

protein kinases [8] = target: T7, protein kinases (Homo sapiens, UniProt P35590); conditions: TIE1, read-out: Test compound/solvent control (%)
T7 construct: purchased Discovery X company (USA), KINOMEscan screening platform
How it was run: as §1

T1 sequence (P22607 23-806): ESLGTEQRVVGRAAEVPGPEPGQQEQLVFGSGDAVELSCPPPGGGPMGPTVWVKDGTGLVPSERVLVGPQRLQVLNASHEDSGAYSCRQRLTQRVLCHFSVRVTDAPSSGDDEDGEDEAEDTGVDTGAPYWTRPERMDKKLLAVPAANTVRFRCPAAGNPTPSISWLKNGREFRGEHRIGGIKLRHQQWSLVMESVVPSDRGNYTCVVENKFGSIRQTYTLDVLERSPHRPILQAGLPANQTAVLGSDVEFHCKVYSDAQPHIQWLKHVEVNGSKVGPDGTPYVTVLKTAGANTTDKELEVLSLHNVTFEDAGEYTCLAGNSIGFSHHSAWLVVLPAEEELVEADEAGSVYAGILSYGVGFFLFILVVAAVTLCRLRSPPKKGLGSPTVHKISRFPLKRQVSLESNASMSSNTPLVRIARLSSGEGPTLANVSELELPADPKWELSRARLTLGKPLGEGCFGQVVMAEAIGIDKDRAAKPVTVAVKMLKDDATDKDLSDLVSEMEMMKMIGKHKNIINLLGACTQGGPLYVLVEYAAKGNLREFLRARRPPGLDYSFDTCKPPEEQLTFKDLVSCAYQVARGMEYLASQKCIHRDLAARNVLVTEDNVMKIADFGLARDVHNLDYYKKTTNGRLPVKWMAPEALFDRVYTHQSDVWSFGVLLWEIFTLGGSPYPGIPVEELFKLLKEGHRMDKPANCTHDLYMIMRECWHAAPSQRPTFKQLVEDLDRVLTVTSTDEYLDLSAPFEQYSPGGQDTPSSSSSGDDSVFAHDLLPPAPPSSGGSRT

`COCCOc1cc2nccc(Oc3ccc(NC(=O)Nc4cc(C(C)(C)C)n[nH]4)c(Cl)c3)c2cc1NC(C)=O` [Compound 66, N-[4-{4-[3-(5-tert-butyl-2H-pyrazol-3-yl)-ureido]-3-chloro-phenoxy}-7-(2-methoxy-ethoxy)-quinolin-6-yl]-acetamide] was tested, and the remaining binding at 0.001 µM (protein kinases [1]; 1 nM) was 100%, the remaining binding at 0.01 µM (protein kinases [1]; 10 nM) was 82% and the remaining binding at 1 µM (protein kinases [1]; 1000 nM) was 0.2%. The “Test compound/solvent control (%)” value (protein kinases [2]; 1 nM) was 57%, the “Test compound/solvent control (%)” value (protein kinases [2]; 10 nM) was 1.3% and the “Test compound/solvent control (%)” value (protein kinases [2]; 1000 nM) was 0%. For the same compound, the remaining binding at 0.001 µM (protein kinases [3]; 1 nM) was 56%, the remaining binding at 0.01 µM (protein kinases [3]; 10 nM) was 4.5% and the remaining binding at 1 µM (protein kinases [3]; 1000 nM) was 0.3%. The “Test compound/solvent control (%)” value (protein kinases [4]; EGFR(L747-E749del, A750P), 1 nM) was 92%, the “Test compound/solvent control (%)” value (protein kinases [4]; EGFR(L747-E749del, A750P), 10 nM) was 11% and the “Test compound/solvent control (%)” value (protein kinases [4]; EGFR(L747-E749del, A750P), 1000 nM) was 0%. For the same compound, the “Test compound/solvent control (%)” value (protein kinases [4]; EGFR(L747-S752del, P753S), 1 nM) was 67%, the “Test compound/solvent control (%)” value (protein kinases [4]; EGFR(L747-S752del, P753S), 10 nM) was 16% and the “Test compound/solvent control (%)” value (protein kinases [4]; EGFR(L747-S752del, P753S), 1000 nM) was 1.6%. For the same compound, the “Test compound/solvent control (%)” value (protein kinases [4]; EGFR(L747-T751del, Sins), 1 nM) was 68%, the “Test compound/solvent control (%)” value (protein kinases [4]; EGFR(L747-T751del, Sins), 10 nM) was 11% and the “Test compound/solvent control (%)” value (protein kinases [4]; EGFR(L747-T751del, Sins), 1000 nM) was 2.7%. The remaining binding at 0.001 µM (protein kinases [5]; 1 nM) was 84%, the remaining binding at 0.01 µM (protein kinases [5]; 10 nM) was 22% and the remaining binding at 1 µM (protein kinases [5]; 1000 nM) was 0%. It also gave a remaining binding at 0.001 µM (protein kinases [6]; 1 nM) of 79%, a remaining binding at 0.01 µM (protein kinases [6]; 10 nM) of 15% and a remaining binding at 1 µM (protein kinases [6]; 1000 nM) of 1.1%. For the same compound, the remaining binding at 0.001 µM (protein kinases [7]; 1 nM) was 85%, the remaining binding at 0.01 µM (protein kinases [7]; 10 nM) was 17% and the remaining binding at 1 µM (protein kinases [7]; 1000 nM) was 4.6%. For the same compound, the remaining binding at 0.001 µM (protein kinases [8]; 1 nM) was 41%, the remaining binding at 0.01 µM (protein kinases [8]; 10 nM) was 21% and the remaining binding at 1 µM (protein kinases [8]; 1000 nM) was 2%.
